Measurements from ChEMBL document CHEMBL1909046, “DrugMatrix in vitro pharmacology data”.

Tests used:
[1] = biological target: T1, Type-2 angiotensin II receptor (Homo sapiens, UniProt P50052); assay type: cell-based; settings: cho-k1; note: in other assays of this panel Not Active means under 50% inhibition at 10 µM
T1 sequence (P50052 whole entry): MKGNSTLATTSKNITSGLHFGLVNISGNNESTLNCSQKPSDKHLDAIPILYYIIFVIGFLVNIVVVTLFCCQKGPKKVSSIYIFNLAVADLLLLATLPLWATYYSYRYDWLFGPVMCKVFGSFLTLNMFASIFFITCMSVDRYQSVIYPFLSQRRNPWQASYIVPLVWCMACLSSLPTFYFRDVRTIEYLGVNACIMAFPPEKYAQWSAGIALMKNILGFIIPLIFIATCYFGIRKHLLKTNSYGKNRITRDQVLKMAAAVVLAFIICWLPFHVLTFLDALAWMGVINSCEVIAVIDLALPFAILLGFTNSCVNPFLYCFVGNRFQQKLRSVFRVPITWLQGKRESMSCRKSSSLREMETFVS

[2] = biological target: T2, Cysteinyl leukotriene receptor 1 (Homo sapiens, UniProt Q9Y271); assay type: cell membranes, CHO-K1, Membrane; settings: cho-k1; note: in other assays of this panel Not Active means under 50% inhibition at 10 µM
T2 sequence (Q9Y271 whole entry): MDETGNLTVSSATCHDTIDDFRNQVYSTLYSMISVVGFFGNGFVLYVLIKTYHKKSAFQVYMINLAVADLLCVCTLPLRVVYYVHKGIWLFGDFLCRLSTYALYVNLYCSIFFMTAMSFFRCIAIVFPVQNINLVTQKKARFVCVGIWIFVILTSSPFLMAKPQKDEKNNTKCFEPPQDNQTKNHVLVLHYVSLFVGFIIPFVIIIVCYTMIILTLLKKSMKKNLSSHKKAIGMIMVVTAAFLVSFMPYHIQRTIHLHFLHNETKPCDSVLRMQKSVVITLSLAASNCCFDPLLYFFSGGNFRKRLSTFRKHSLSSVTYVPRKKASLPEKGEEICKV

Cannabinoid receptor 1 = Cannabinoid receptor 1 (Homo sapiens, UniProt P21554); assay type: cell membranes, Chem-1, Membrane; settings: chem-1; note: in other assays of this panel Not Active means under 50% inhibition at 10 µM
B2 bradykinin receptor = biological target: T3, B2 bradykinin receptor (Homo sapiens, UniProt P30411); assay type: cell membranes, Membrane; settings: chem-1; note: in other assays of this panel Not Active means under 50% inhibition at 10 µM
T3 sequence (P30411 whole entry): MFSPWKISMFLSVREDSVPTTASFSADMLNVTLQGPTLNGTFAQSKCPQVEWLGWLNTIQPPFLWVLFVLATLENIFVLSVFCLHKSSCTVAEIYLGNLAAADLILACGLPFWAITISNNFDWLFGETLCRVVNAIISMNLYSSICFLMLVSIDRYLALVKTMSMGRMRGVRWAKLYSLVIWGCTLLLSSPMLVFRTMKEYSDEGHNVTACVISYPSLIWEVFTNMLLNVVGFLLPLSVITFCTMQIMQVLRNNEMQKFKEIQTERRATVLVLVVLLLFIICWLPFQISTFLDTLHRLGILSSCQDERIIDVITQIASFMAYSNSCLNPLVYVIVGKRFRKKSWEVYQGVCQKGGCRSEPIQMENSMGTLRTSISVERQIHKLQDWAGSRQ

[3] = biological target: Tyrosine-protein kinase Lck (Homo sapiens, UniProt P06239); experiment: DRUGMATRIX: Protein Tyrosine Kinase, LCK enzyme inhibition (substrate: Poly(Glu:Tyr)); assay type: cell-based, Insect cells; settings: insect cells; Not Active = under 50% inhibition at 10 µM
D(4) dopamine receptor = biological target: T4, D(4) dopamine receptor (Homo sapiens, UniProt P21917); experiment: DRUGMATRIX: Dopamine D4.2 radioligand binding (ligand: [3H] Spiperone); assay type: cell membranes, CHO-K1, Membrane; settings: Not Active = under 50% inhibition at 10 µM
T4 sequence (P21917 whole entry): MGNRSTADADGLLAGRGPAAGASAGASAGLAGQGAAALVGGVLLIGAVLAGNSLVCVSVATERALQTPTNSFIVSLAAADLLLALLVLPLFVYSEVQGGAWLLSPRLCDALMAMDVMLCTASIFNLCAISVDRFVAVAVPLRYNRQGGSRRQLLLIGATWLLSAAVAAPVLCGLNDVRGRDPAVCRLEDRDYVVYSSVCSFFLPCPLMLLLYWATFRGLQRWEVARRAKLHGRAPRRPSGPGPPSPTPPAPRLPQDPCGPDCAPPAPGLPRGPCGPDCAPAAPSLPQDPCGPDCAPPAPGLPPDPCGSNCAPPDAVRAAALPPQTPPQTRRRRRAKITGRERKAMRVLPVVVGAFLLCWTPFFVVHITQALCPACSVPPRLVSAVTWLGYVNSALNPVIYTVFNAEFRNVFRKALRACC

[4] = DRUGMATRIX: Glutamate, AMPA radioligand binding (ligand: [3H] AMPA); assay type: cell membranes, Rattus norvegicus, Wistar, Cerebral cortex, Membrane; settings: Not Active = under 50% inhibition at 10 µM
[5] = DRUGMATRIX: Phorbol Ester radioligand binding (ligand: [3H] PDBu); assay type: cell membranes, Mus musculus, ICR, Brain, Membrane; settings: Not Active = under 50% inhibition at 10 µM

Sequence of Tyrosine-protein kinase Lck (P06239 whole entry): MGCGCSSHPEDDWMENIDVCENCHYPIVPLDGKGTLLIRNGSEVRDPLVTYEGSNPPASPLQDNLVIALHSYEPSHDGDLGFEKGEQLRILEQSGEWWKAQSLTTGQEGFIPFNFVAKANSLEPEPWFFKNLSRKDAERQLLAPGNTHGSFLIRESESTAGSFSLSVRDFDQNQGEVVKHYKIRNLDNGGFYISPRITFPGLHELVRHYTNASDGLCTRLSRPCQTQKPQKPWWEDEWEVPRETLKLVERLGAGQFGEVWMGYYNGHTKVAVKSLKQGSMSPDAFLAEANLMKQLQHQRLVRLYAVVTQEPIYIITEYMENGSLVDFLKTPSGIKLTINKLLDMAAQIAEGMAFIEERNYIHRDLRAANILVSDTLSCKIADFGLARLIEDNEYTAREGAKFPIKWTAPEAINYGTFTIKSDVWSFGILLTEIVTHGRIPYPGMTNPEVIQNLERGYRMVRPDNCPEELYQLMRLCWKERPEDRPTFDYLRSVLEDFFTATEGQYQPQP
Sequence of Cannabinoid receptor 1 (P21554 whole entry): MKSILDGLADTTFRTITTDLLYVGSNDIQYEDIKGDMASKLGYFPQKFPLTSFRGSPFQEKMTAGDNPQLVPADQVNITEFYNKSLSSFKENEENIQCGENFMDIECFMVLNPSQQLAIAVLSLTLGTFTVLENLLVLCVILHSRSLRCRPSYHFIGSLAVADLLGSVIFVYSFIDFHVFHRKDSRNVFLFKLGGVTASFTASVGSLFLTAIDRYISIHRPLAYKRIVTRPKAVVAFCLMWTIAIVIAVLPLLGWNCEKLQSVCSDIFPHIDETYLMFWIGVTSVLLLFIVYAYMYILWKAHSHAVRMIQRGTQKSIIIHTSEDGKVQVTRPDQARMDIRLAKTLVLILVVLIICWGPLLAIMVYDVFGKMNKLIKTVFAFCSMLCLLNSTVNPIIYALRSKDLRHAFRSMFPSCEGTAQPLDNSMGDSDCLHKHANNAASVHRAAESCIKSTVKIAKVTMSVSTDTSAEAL

| SMILES | IC50 [1] | IC50 [2] | IC50 (Cannabinoid receptor 1) | IC50 (B2 bradykinin receptor) | IC50 [3] | IC50 (D(4) dopamine receptor; cho-k1) | IC50 [4] | Ki [4] | IC50 [5] | Ki [5] | IC50 (D(4) dopamine receptor; read-out: IC50) [nM] | Ki (D(4) dopamine receptor; read-out: Ki) [nM] | Ki [3] |
| --- | --- | --- | --- | --- | --- | --- | --- | --- | --- | --- | --- | --- | --- |
| Cc1cc2c(s1)Nc1ccccc1N=C2N1CCN(C)CC1 [OLANZAPINE] | Not Active | Not Active | Not Active | Not Active | Not Active | Not Active |  |  |  |  |  |  |  |
| CC1(C)[C@H](C(=O)O)N2C(=O)C[C@H]2S1(=O)=O [SULBACTAM] | Not Active | Not Active | Not Active | Not Active | Not Active | Not Active | Not Active | Not Active | Not Active | Not Active |  |  |  |
| Oc1ccc(/C=C/c2cc(O)cc(O)c2)cc1 [RESVERATROL] | Not Active | Not Active | Not Active | Not Active | Not Active | Not Active | Not Active | Not Active | Not Active | Not Active |  |  |  |
| O=C1CC[C@@]2(O)[C@H]3Cc4ccc(O)c5c4[C@@]2(CCN3CC2CC2)[C@H]1O5 [NALTREXONE] | Not Active | Not Active | Not Active | Not Active | Not Active | Not Active | Not Active | Not Active | Not Active | Not Active |  |  |  |
| Cc1nnc(NS(=O)(=O)c2ccc(N)cc2)s1 [SULFAMETHIZOLE] | Not Active | Not Active | Not Active | Not Active | Not Active | Not Active | Not Active | Not Active | Not Active | Not Active |  |  |  |
| C=CCc1ccc2c(c1)OCO2 [SAFROLE] | Not Active | Not Active | Not Active | Not Active | Not Active | Not Active | Not Active | Not Active | Not Active | Not Active |  |  |  |
| Cc1cn([C@H]2C=C[C@@H](CO)O2)c(=O)[nH]c1=O [STAVUDINE] | Not Active | Not Active | Not Active | Not Active | Not Active | Not Active | Not Active | Not Active | Not Active | Not Active |  |  |  |
| CC1=C(/C=C/C(C)=C/C=C/C(C)=C/C(=O)O)C(C)(C)CCC1 [TRETINOIN] | Not Active | Not Active | Not Active | Not Active | Not Active | Not Active | Not Active | Not Active | Not Active | Not Active |  |  |  |
| Nc1nc(N)c2nc(-c3ccccc3)c(N)nc2n1 | Not Active | Not Active | Not Active | Not Active | Not Active | Not Active | Not Active | Not Active | Not Active | Not Active |  |  |  |
| CN1C(=O)OC(C)(C)C1=O [TRIMETHADIONE] | Not Active | Not Active | Not Active | Not Active | Not Active | Not Active | Not Active | Not Active | Not Active | Not Active |  |  |  |
| Cc1ccc(S(=O)(=O)NC(=O)NN2CCCCCC2)cc1 [TOLAZAMIDE] | Not Active | Not Active | Not Active | Not Active | Not Active | Not Active | Not Active | Not Active | Not Active | Not Active |  |  |  |
| O=C(O)c1cc(/N=N/c2ccc(S(=O)(=O)Nc3ccccn3)cc2)ccc1O [SULFASALAZINE] | Not Active | Not Active | Not Active | Not Active | Not Active | Not Active | Not Active | Not Active | Not Active | Not Active |  |  |  |
| CCN(CC)C(=S)SSC(=S)N(CC)CC | Not Active | Not Active | Not Active | Not Active | Not Active |  | Not Active | Not Active | Not Active | Not Active | 3150 | 1100 |  |
| CS(=O)(=O)c1ccc(C2=C(c3ccccc3)C(=O)OC2)cc1 [ROFECOXIB] | Not Active | Not Active | Not Active | Not Active | Not Active | Not Active | Not Active | Not Active | Not Active | Not Active |  |  |  |
| Cc1cnc(NC(=O)C2=C(O)c3ccccc3S(=O)(=O)N2C)s1 [MELOXICAM] | Not Active | Not Active | Not Active | Not Active | Not Active | Not Active | Not Active | Not Active | Not Active | Not Active |  |  |  |
| C1CCN2C[C@@H]3C[C@@H](CN4CCCC[C@@H]34)[C@H]2C1 [SPARTEINE] | Not Active | Not Active | Not Active | Not Active | Not Active | Not Active | Not Active | Not Active | Not Active | Not Active |  |  |  |
| CO[C@@H]1[C@@H](OC)[C@H](C)[C@@](O)(CC(=O)O)O[C@H]1[C@H](C)[C@H]1O[C@@]2(CC[C@@](C)([C@H]3CC[C@@](C)([C@@H]4O[C@@H]([C@H]5O[C@](C)(O)[C@H](C)C[C@@H]5C)C[C@@H]4O[C@@H]4C[C@H](OC)[C@@H](OC)[C@H](C)O4)O3)O2)C[C@H](O)[C@H]1C.N [MADURAMICIN] | Not Active | Not Active | Not Active | Not Active | Not Active | Not Active | Not Active | Not Active | Not Active | Not Active |  |  |  |
| CC[C@@]1(O)C(=O)OCc2c1cc1n(c2=O)Cc2cc3c(CN(C)C)c(O)ccc3nc2-1 [TOPOTECAN] | Not Active | Not Active | Not Active | Not Active | Not Active | Not Active | Not Active | Not Active | Not Active | Not Active |  |  |  |
| C#C[C@]1(O)CC[C@H]2[C@@H]3[C@H](C)CC4=C(CCC(=O)C4)[C@H]3CC[C@@]21C [TIBOLONE] | Not Active | Not Active | Not Active | Not Active | Not Active | Not Active | Not Active | Not Active | Not Active | Not Active |  |  |  |
| CNCCCC12CCC(c3ccccc31)c1ccccc12 [MAPROTILINE] | Not Active | Not Active | Not Active | Not Active | Not Active | Not Active |  |  |  |  |  |  |  |
| CN(C)CCC=C1c2ccccc2COc2ccccc21 [DOXEPIN] | Not Active | Not Active | Not Active | Not Active |  | Not Active |  |  |  |  |  |  | Not Active |
